Reference: PubChem BioAssay (NCI)
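Five compound concentrations were applied to cells in 96-well plates for 48 hours; endpoints were derived by simple linear interpolation of the resulting dose-response curve. GI50 is the concentration that inhibits growth by half. TGI marks complete inhibition of growth.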

Tests used:
Test in all cases: NCI-60 cell line screen, 48 h
A498 renal = system: A498 renal
T-47D breast = system: T-47D breast
DU-145 prostate = system: DU-145 prostate
HT29 colon = system: HT29 colon
NCI-H226 lung = system: NCI-H226 lung
SNB-75 CNS = system: SNB-75 CNS
ACHN renal = system: ACHN renal
MDA-MB-231 breast = system: MDA-MB-231 breast
OVCAR-3 ovarian = system: OVCAR-3 ovarian
HOP-92 NSCLC = system: HOP-92 NSCLC
HCT-15 colon = system: HCT-15 colon
NCI-H23 lung = system: NCI-H23 lung
SF-268 CNS = system: SF-268 CNS
BT-549 breast = system: BT-549 breast
MDA-MB-435 = system: MDA-MB-435
NCI-H522 lung = system: NCI-H522 lung
SK-OV-3 ovarian = system: SK-OV-3 ovarian
NCI-H460 lung = system: NCI-H460 lung
OVCAR-8 ovarian = system: OVCAR-8 ovarian
COLO 205 colon = system: COLO 205 colon
SNB-19 CNS = system: SNB-19 CNS
A549 NSCLC = system: A549 NSCLC
SN12C renal = system: SN12C renal
PC-3 prostate = system: PC-3 prostate
U251 CNS = system: U251 CNS
SF-539 CNS = system: SF-539 CNS
SF-295 CNS = system: SF-295 CNS
HOP-62 NSCLC = system: HOP-62 NSCLC
RXF 393 renal = system: RXF 393 renal
MALME-3M melanoma = system: MALME-3M melanoma
MOLT-4 leukemia = system: MOLT-4 leukemia
SK-MEL-28 melanoma = system: SK-MEL-28 melanoma
SR leukemia = system: SR leukemia
786-0 renal = system: 786-0 renal
SW-620 colon = system: SW-620 colon
UACC-257 melanoma = system: UACC-257 melanoma
TK-10 renal = system: TK-10 renal
RPMI-8226 leukemia = system: RPMI-8226 leukemia
HS 578T breast = system: HS 578T breast
KM12 colon = system: KM12 colon
OVCAR-4 ovarian = system: OVCAR-4 ovarian
M14 melanoma = system: M14 melanoma
SK-MEL-2 melanoma = system: SK-MEL-2 melanoma
HCC-2998 colon = system: HCC-2998 colon
HL-60(TB) leukemia = system: HL-60(TB) leukemia
OVCAR-5 ovarian = system: OVCAR-5 ovarian
SK-MEL-5 melanoma = system: SK-MEL-5 melanoma
IGROV1 ovarian = system: IGROV1 ovarian
UO-31 renal = system: UO-31 renal
UACC-62 melanoma = system: UACC-62 melanoma
CCRF-CEM leukemia = system: CCRF-CEM leukemia
NCI/ADR-RES ovarian = system: NCI/ADR-RES ovarian
HCT-116 colon = system: HCT-116 colon
EKVX NSCLC = system: EKVX NSCLC
MCF7 breast = system: MCF7 breast
CAKI-1 renal = system: CAKI-1 renal
LOX IMVI melanoma = system: LOX IMVI melanoma

## Clc1ccc(-c2ccc(CNCC3CCNCC3)o2)c(-c2ccccc2)c1
A498 renal
  GI50: 1.71 µM
  TGI: 3.24 µM
T-47D breast
  GI50: 1.74 µM
  TGI: 3.82 µM
DU-145 prostate
  GI50: 1.82 µM
  TGI: 3.33 µM
HT29 colon
  GI50: 1.44 µM
  TGI: 2.89 µM
NCI-H226 lung
  GI50: 1.66 µM
  TGI: 3.68 µM
SNB-75 CNS
  GI50: 1.39 µM
  TGI: 2.81 µM
ACHN renal
  GI50: 1.67 µM
  TGI: 3.06 µM
MDA-MB-231 breast
  GI50: 1.36 µM
  TGI: 2.85 µM
OVCAR-3 ovarian
  GI50: 1.74 µM
  TGI: 3.46 µM
HOP-92 NSCLC
  GI50: 1.01 µM
  TGI: 2.23 µM
HCT-15 colon
  GI50: 1.19 µM
  TGI: 2.6 µM
NCI-H23 lung
  GI50: 1.71 µM
  TGI: 3.32 µM
SF-268 CNS
  GI50: 1.62 µM
  TGI: 3.27 µM
BT-549 breast
  GI50: 1.71 µM
  TGI: 3.2 µM
MDA-MB-435
  GI50: 1.61 µM
  TGI: 3.05 µM
NCI-H522 lung
  GI50: 1.85 µM
  TGI: 3.63 µM
SK-OV-3 ovarian
  GI50: 1.87 µM
  TGI: 3.33 µM
NCI-H460 lung
  GI50: 1.71 µM
  TGI: 3.33 µM
OVCAR-8 ovarian
  GI50: 1.87 µM
  TGI: 3.5 µM
COLO 205 colon
  GI50: 1.64 µM
  TGI: 3.36 µM
SNB-19 CNS
  GI50: 1.64 µM
  TGI: 3.16 µM
A549 NSCLC
  GI50: 1.79 µM
  TGI: 3.56 µM
SN12C renal
  GI50: 1.54 µM
  TGI: 3.03 µM
PC-3 prostate
  GI50: 1.38 µM
  TGI: 2.76 µM
U251 CNS
  GI50: 1.56 µM
  TGI: 3.01 µM
SF-539 CNS
  GI50: 1.65 µM
  TGI: 3.12 µM
SF-295 CNS
  GI50: 1.57 µM
  TGI: 3 µM
HOP-62 NSCLC
  GI50: 1.65 µM
  TGI: 3.27 µM
RXF 393 renal
  GI50: 1.36 µM
  TGI: 2.79 µM
MALME-3M melanoma
  GI50: 1.88 µM
  TGI: 3.54 µM
MOLT-4 leukemia
  GI50: 1.54 µM
  TGI: 3.42 µM
SK-MEL-28 melanoma
  GI50: 1.79 µM
  TGI: 3.27 µM
SR leukemia
  GI50: 0.347 µM
  TGI: 1.27 µM
786-0 renal
  GI50: 1.58 µM
  TGI: 3.01 µM
SW-620 colon
  GI50: 1.38 µM
  TGI: 2.96 µM
UACC-257 melanoma
  GI50: 2.03 µM
  TGI: 3.57 µM
TK-10 renal
  GI50: 1.62 µM
  TGI: 3.13 µM
RPMI-8226 leukemia
  GI50: 1.3 µM
  TGI: 3.19 µM
HS 578T breast
  GI50: 1.63 µM
  TGI: 3.42 µM
KM12 colon
  GI50: 1.79 µM
  TGI: 3.62 µM
OVCAR-4 ovarian
  GI50: 1.85 µM
  TGI: 3.54 µM
M14 melanoma
  GI50: 1.63 µM
  TGI: 3.11 µM
SK-MEL-2 melanoma
  GI50: 1.76 µM
  TGI: 3.31 µM
HCC-2998 colon
  GI50: 1.62 µM
  TGI: 3.2 µM
HL-60(TB) leukemia
  GI50: 1.8 µM
  TGI: 3.69 µM
OVCAR-5 ovarian
  GI50: 1.61 µM
  TGI: 3.04 µM
SK-MEL-5 melanoma
  GI50: 1.66 µM
  TGI: 3.05 µM
IGROV1 ovarian
  GI50: 1.39 µM
  TGI: 2.93 µM
UO-31 renal
  GI50: 1.37 µM
  TGI: 2.76 µM
UACC-62 melanoma
  GI50: 1.75 µM
  TGI: 3.27 µM
CCRF-CEM leukemia
  GI50: 0.557 µM
  TGI: 2.31 µM
NCI/ADR-RES ovarian
  GI50: 1.71 µM
  TGI: 3.3 µM
HCT-116 colon
  GI50: 1.24 µM
  TGI: 2.54 µM
EKVX NSCLC
  GI50: 1.59 µM
  TGI: 2.95 µM
MCF7 breast
  GI50: 1.56 µM
  TGI: 3.3 µM
CAKI-1 renal
  GI50: 1.51 µM
  TGI: 2.9 µM
LOX IMVI melanoma
  GI50: 1.54 µM
  TGI: 3.03 µM
